Experimental data taken from the supplement of paper PMC11451515.

System: NOMO1
Experiment: cell viability relative to DMSO control; higher = less cytotoxic
Conditions: 48 h
Summary of the method: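 Three leukemia lines were tested: NOMO1 and SEM at 500 cells/well and P12-Ichikawa at 1000 cells/well. Each was adapted for at least four passages in each medium and seeded in 5 μl in 1536-well plates, and library compounds in DMSO were pin-dosed from 47 μM to 0.79 nM in 11 threefold steps. After 48 h at 37°C, CellTiter-Glo One luminescence was read. Viability is a percentage relative to DMSO wells on each plate, with cell-free wells as background.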

[1] = RPMI 5 mM glucose + 10% FBS, 0.000781 µM
[2] = RPMI 5 mM glucose + 10% FBS, 0.00234 µM
[3] = RPMI 5 mM glucose + 10% FBS, 0.00702 µM
[4] = RPMI 5 mM glucose + 10% FBS, 0.0211 µM
[5] = RPMI 5 mM glucose + 10% FBS, 0.0632 µM
[6] = RPMI 5 mM glucose + 10% FBS, 0.19 µM
[7] = RPMI 5 mM glucose + 10% FBS, 0.569 µM
[8] = RPMI 5 mM glucose + 10% FBS, 1.71 µM
[9] = RPMI 5 mM glucose + 10% FBS, 5.12 µM
[10] = RPMI 5 mM glucose + 10% FBS, 15.4 µM
[11] = RPMI 5 mM glucose + 10% FBS, 46.1 µM
[12] = HPLM + 10% dialyzed FBS, 0.000781 µM
[13] = HPLM + 10% dialyzed FBS, 0.00234 µM
[14] = HPLM + 10% dialyzed FBS, 0.00702 µM
[15] = HPLM + 10% dialyzed FBS, 0.0211 µM
[16] = HPLM + 10% dialyzed FBS, 0.0632 µM
[17] = HPLM + 10% dialyzed FBS, 0.19 µM
[18] = HPLM + 10% dialyzed FBS, 0.569 µM
[19] = HPLM + 10% dialyzed FBS, 1.71 µM
[20] = HPLM + 10% dialyzed FBS, 5.12 µM
[21] = HPLM + 10% dialyzed FBS, 15.4 µM
[22] = HPLM + 10% dialyzed FBS, 46.1 µM
[23] = RPMI 5 mM glucose + 10% dialyzed FBS, 0.000781 µM
[24] = RPMI 5 mM glucose + 10% dialyzed FBS, 0.00234 µM
[25] = RPMI 5 mM glucose + 10% dialyzed FBS, 0.00702 µM
[26] = RPMI 5 mM glucose + 10% dialyzed FBS, 0.0211 µM
[27] = RPMI 5 mM glucose + 10% dialyzed FBS, 0.0632 µM
[28] = RPMI 5 mM glucose + 10% dialyzed FBS, 0.19 µM
[29] = RPMI 5 mM glucose + 10% dialyzed FBS, 0.569 µM
[30] = RPMI 5 mM glucose + 10% dialyzed FBS, 1.71 µM
[31] = RPMI 5 mM glucose + 10% dialyzed FBS, 5.12 µM
[32] = RPMI 5 mM glucose + 10% dialyzed FBS, 15.4 µM
[33] = RPMI 5 mM glucose + 10% dialyzed FBS, 46.1 µM

| SMILES | cell viability [1] [%] | cell viability [2] [%] | cell viability [3] [%] | cell viability [4] [%] | cell viability [5] [%] | cell viability [6] [%] | cell viability [7] [%] | cell viability [8] [%] | cell viability [9] [%] | cell viability [10] [%] | cell viability [11] [%] | cell viability [12] [%] | cell viability [13] [%] | cell viability [14] [%] | cell viability [15] [%] | cell viability [16] [%] | cell viability [17] [%] | cell viability [18] [%] | cell viability [19] [%] | cell viability [20] [%] | cell viability [21] [%] | cell viability [22] [%] | cell viability [23] [%] | cell viability [24] [%] | cell viability [25] [%] | cell viability [26] [%] | cell viability [27] [%] | cell viability [28] [%] | cell viability [29] [%] | cell viability [30] [%] | cell viability [31] [%] | cell viability [32] [%] | cell viability [33] [%] |
| --- | --- | --- | --- | --- | --- | --- | --- | --- | --- | --- | --- | --- | --- | --- | --- | --- | --- | --- | --- | --- | --- | --- | --- | --- | --- | --- | --- | --- | --- | --- | --- | --- | --- |
| CCCCNc1cc(C(=O)O)cc([S+](N)(=O)[O-])c1Oc1ccccc1 | 118 | 113 | 128 | 127 | 129 | 115 | 124 | 120 | 136 | 146 | 135 | – | – | – | – | – | – | – | – | – | – | – | – | – | – | – | – | – | – | – | – | – | – |
| Oc1ccc(C2CCN(c3ccnc4ccccc34)CC2)cc1O | 108 | 109 | 97.5 | 101 | 107 | 123 | 108 | 120 | 98.9 | 95.7 | 48.6 | 101 | 107 | 115 | 101 | 123 | 124 | 113 | 123 | 94.1 | 82.9 | 55.6 | 91.9 | 99 | 97.9 | 83.8 | 104 | 96.4 | 103 | 109 | 111 | 98.1 | 70.9 |
| O=C1C[C@@H](c2ccc(O)cc2)Oc2cc(O)cc(O)c21 | 128 | 104 | 104 | 100 | 126 | 124 | 116 | 107 | 127 | 106 | 111 | – | – | – | – | – | – | – | – | – | – | – | 111 | 108 | 117 | 110 | 120 | 110 | 119 | 108 | 86.2 | 109 | 97.9 |
| Cc1cccc(-c2nn(C(=S)Nc3ccccc3)cc2-c2ccnc3ccccc23)n1 | 108 | 118 | 109 | 122 | 111 | 113 | 119 | 108 | 115 | 81.6 | 94.9 | – | – | – | – | – | – | – | – | – | – | – | 115 | 122 | 112 | 119 | 115 | 103 | 111 | 104 | 117 | 112 | 102 |
| CC[C@H]1/C=C\C=C/C[C@@H](C)[C@H](O)[C@@](C)(O)C(=O)[C@@H](C)[C@H](O)[C@@H](C)C(=O)[C@@H](C)[C@H](O)[C@@H](C)/C=C/C(=O)O[C@@H]2[C@H](C)[C@H](CC1)O[C@]1(CC[C@H](C)[C@H](C[C@@H](C)O)O1)[C@H]2C | 83 | 86.4 | 87.1 | 88.9 | 82.7 | 104 | 92.7 | 44.7 | 39.1 | 37.6 | 4.56 | 74.4 | 89.4 | 105 | 117 | 103 | 106 | 108 | 55.4 | 40.7 | 31.6 | 5.57 | 81.4 | 89.2 | 92.9 | 83.9 | 75.1 | 94.4 | 79.7 | 54.2 | 39.9 | 31.6 | 4.92 |
| CC1(C)C(=O)N(CCN2CCC(C(=O)c3ccc(F)cc3)CC2)c2ccccc21 | 120 | 124 | 120 | 131 | 141 | 142 | 128 | 133 | 117 | 122 | 82.1 | 117 | 115 | 120 | 141 | 151 | 138 | 162 | 128 | 119 | 129 | 88.7 | 116 | 120 | 134 | 136 | 134 | 134 | 148 | 132 | 120 | 113 | 84.1 |
| C[C@H]1C[C@H]2[C@@H]3CCC4=CC(=O)C=C[C@]4(C)[C@@]3(F)[C@@H](O)C[C@]2(C)[C@@]1(O)C(=O)CO | 120 | 122 | 128 | 122 | 123 | 133 | 131 | 135 | 120 | 120 | 106 | – | – | – | – | – | – | – | – | – | – | – | – | – | – | – | – | – | – | – | – | – | – |
| CN(C/C=C/C#CC(C)(C)C)Cc1cccc2ccccc12 | 86.4 | 96.7 | 86.2 | 85.1 | 93.2 | 91.8 | 103 | 87.2 | 90 | 94.5 | 100 | 93.8 | 125 | 104 | 94.1 | 108 | 104 | 108 | 96.4 | 98 | 92.4 | 106 | 87.9 | 82.4 | 95.8 | 91.6 | 107 | 90.1 | 93.9 | 91.6 | 90.2 | 98.8 | 109 |
| C[S+](=O)([O-])N(Cc1ccco1)CC(O)Cn1c2ccccc2c2ccccc21 (configuration not stated) | 88.4 | 91.6 | 91.4 | 92.2 | 94.3 | 94 | 90 | 80.7 | 79.6 | 86.3 | 52.8 | 95.3 | 99 | 102 | 105 | 86.5 | 91.2 | 93.9 | 82.8 | 83.6 | 73.6 | 35.2 | 97.9 | 89.2 | 93.3 | 90.3 | 93.3 | 90.1 | 97.8 | 85.1 | 80.8 | 77.9 | 50.8 |
| CNC1[C@@H](O)C(O[C@@H]2C(O)C(O[C@H]3O[C@H]([C@@H](C)NC)CC[C@H]3N)[C@@H](N)C[C@H]2N)OC[C@]1(C)O (some centres not stated) | 93.4 | 99.6 | 93.2 | 97.3 | 91.3 | 91.2 | 91.2 | 98.9 | 87.7 | 92.8 | 96.7 | 98.9 | 102 | 104 | 106 | 108 | 98.1 | 106 | 87.4 | 85.3 | 91.4 | 63.7 | 92.4 | 84.5 | 87.1 | 81.2 | 88.5 | 87.7 | 92.1 | 90 | 83.1 | 89.8 | 76.5 |
| CC(C)(C)C(=O)OCOP(=O)(COCCn1cnc2c(N)ncnc21)OCOC(=O)C(C)(C)C | 109 | 96 | 98.2 | 98.6 | 70.3 | 61.4 | 44.4 | 19.9 | 15.8 | 9.1 | 2.21 | 86.9 | 99.5 | 93.6 | 108 | 88.3 | 62.2 | 68.2 | 33.9 | 32.2 | 18.9 | 2.01 | 101 | 93.6 | 91.9 | 93.7 | 78.5 | 66.9 | 47.7 | 28.6 | 14.9 | 14.2 | 2.41 |
| Clc1cc(Cl)cc(CNc2ncncc2-c2ccc3c(c2)OCO3)c1 | 77.6 | 85.5 | 87.6 | 80.7 | 101 | 96.6 | 87.3 | 97.9 | 85.4 | 87.7 | 40.3 | 81.1 | 85.8 | 97.1 | 94.1 | 101 | 92.4 | 94.6 | 90.8 | 85.7 | 82.7 | 16.1 | 91.5 | 92.1 | 81.4 | 93.7 | 82 | 93.5 | 84.2 | 87.3 | 88.8 | 101 | 52.9 |
| CC(=O)N1CCN(c2ccc(OC[C@H]3CO[C@](Cn4ccnc4)(c4ccc(Cl)cc4Cl)O3)cc2)CC1 | 113 | 111 | 121 | 114 | 114 | 107 | 119 | 106 | 97.9 | 98.2 | 93.6 | 126 | 120 | 123 | 118 | 117 | 102 | 129 | 103 | 98.8 | 96.3 | 80.4 | 111 | 100 | 120 | 127 | 127 | 113 | 103 | 113 | 126 | 110 | 89.3 |
| CO[C@H]1C[C@@H]2CC[C@@H](C)[C@@](O)(O2)C(=O)C(=O)N2CCCC[C@H]2C(=O)O[C@H]([C@H](C)C[C@@H]2CC[C@@H](OC(=O)C(C)(CO)CO)[C@H](OC)C2)CC(=O)[C@H](C)/C=C(\C)[C@@H](O)[C@@H](OC)C(=O)[C@H](C)C[C@H](C)/C=C/C=C/C=C/1C | 108 | 108 | 114 | 117 | 98.3 | 113 | 110 | 110 | 77 | 74.5 | 60.3 | 91.2 | 113 | 105 | 98.5 | 93.4 | 102 | 98.6 | 92.8 | 93.9 | 82.1 | 64.7 | 96.1 | 115 | 106 | 103 | 108 | 101 | 101 | 108 | 93.2 | 71.6 | 64.5 |
| CC1(C)OC2CC3C4CC(F)C/5=C/C(=O)/C=C\C5(C)C4C(O)CC3(C)[C@@]2(O1)C(=O)CO (some centres not stated) | 113 | 108 | 102 | 115 | 121 | 127 | 116 | 112 | 117 | 119 | 119 | 105 | 111 | 118 | 119 | 126 | 117 | 110 | 124 | 123 | 124 | 119 | 124 | 113 | 125 | 122 | 123 | 150 | 123 | 138 | 135 | 119 | 132 |
| CN1\C(=C(\O)C2=C(C=CS2)[S+]1([O-])=O)C(=O)NC3=CC=CC=N3 | 100 | 106 | 113 | 111 | 113 | 114 | 94.4 | 101 | 100 | 93.1 | 29.3 | 116 | 122 | 123 | 125 | 112 | 112 | 109 | 114 | 95.4 | 100 | 44.6 | 113 | 114 | 117 | 116 | 110 | 114 | 97.3 | 107 | 109 | 92.7 | 46.3 |
